Here are results for four compounds from PMC8699473, “An Easily Expandable Multi-Drug LC-MS Assay for the Simultaneous Quantification of 57 Oral Antitumor Drugs in Human Plasma” (Cancers, 2021).

This data set is described as follows: Short-term stability in spiked pooled human plasma (bench-top, 4 °C, 56 °C).

Consider `CS(=O)(=O)CCNCc1ccc(-c2ccc3ncnc(Nc4ccc(OCc5cccc(F)c5)c(Cl)c4)c3c2)o1` [Lapatinib], for which the “Short-time stability (1h, 56°C) Accuracy [%]” value is on record as 19.2% (validation standard 2xLLOV), -24.8% (validation standard LLOV), 46.1% (validation standard MOV) and 42.5% (validation standard ULOV). Moreover, the “Short-time stability (24h, 4°C, without daylight) Accuracy [%]” value was 96.4% (validation standard 2xLLOV), 92.5% (validation standard LLOV), 97.9% (validation standard MOV) and 94.3% (validation standard ULOV). Also, the “Short-time stability (24h, RT, with daylight) Accuracy [%]” value reads like this: (validation standard 2xLLOV) 46.9%; (validation standard LLOV) 5.2%; (validation standard MOV) 93.5%; (validation standard ULOV) 100.7%. Also, the “Short-time stability (24h, RT, without daylight) Accuracy [%]” value reads like this: (validation standard 2xLLOV) 53.0%; (validation standard LLOV) 14.4%; (validation standard MOV) 109.4%; (validation standard ULOV) 112.4%.
Turning to `Nc1cccc2c1CN(C1CCC(=O)NC1=O)C2=O` (centres unmarked) [Lenalidomide], the “Short-time stability (1h, 56°C) Accuracy [%]” value amounted to 39.6% (validation standard 2xLLOV), 20.6% (validation standard MOV) and 18.5% (validation standard ULOV). Moreover, the “Short-time stability (24h, 4°C, without daylight) Accuracy [%]” value (validation standard 2xLLOV) worked out at 107.4%; the “Short-time stability (24h, 4°C, without daylight) Accuracy [%]” value (validation standard LLOV) stood at 83.0%; the “Short-time stability (24h, 4°C, without daylight) Accuracy [%]” value (validation standard MOV) was 97.8%; the “Short-time stability (24h, 4°C, without daylight) Accuracy [%]” value (validation standard ULOV) stood at 90.4%. Moreover, the “Short-time stability (24h, RT, with daylight) Accuracy [%]” value by setting is: (validation standard 2xLLOV) 54.9%; (validation standard LLOV) 81.5%; (validation standard MOV) 58.7%; (validation standard ULOV) 51.9%. Also, the “Short-time stability (24h, RT, without daylight) Accuracy [%]” value by setting is: (validation standard 2xLLOV) 49.6%; (validation standard MOV) 54.1%; (validation standard ULOV) 50.9%.
`COc1cc2nccc(Oc3ccc(NC(=O)NC4CC4)c(Cl)c3)c2cc1C(N)=O` [Lenvatinib]: where the note is “validation standard 2xLLOV”, the “Short-time stability (1h, 56°C) Accuracy [%]” value was found to be 56.5%; the “Short-time stability (24h, 4°C, without daylight) Accuracy [%]” value is given as 103.4%; the “Short-time stability (24h, RT, with daylight) Accuracy [%]” value was determined as 96.8%; the “Short-time stability (24h, RT, without daylight) Accuracy [%]” value was 94.6%. Also, for the setting “validation standard LLOV”, the “Short-time stability (1h, 56°C) Accuracy [%]” value came to 62.9%; the “Short-time stability (24h, 4°C, without daylight) Accuracy [%]” value amounted to 114.0%; the “Short-time stability (24h, RT, with daylight) Accuracy [%]” value was found to be 106.4%; the “Short-time stability (24h, RT, without daylight) Accuracy [%]” value is 110.0%. Under “validation standard MOV”, the “Short-time stability (1h, 56°C) Accuracy [%]” value came to 46.6%; the “Short-time stability (24h, 4°C, without daylight) Accuracy [%]” value was 95.9%; the “Short-time stability (24h, RT, with daylight) Accuracy [%]” value was determined as 93.9%; the “Short-time stability (24h, RT, without daylight) Accuracy [%]” value is 94.3%. For the setting “validation standard ULOV”, the “Short-time stability (1h, 56°C) Accuracy [%]” value was found to be 40.6%; the “Short-time stability (24h, 4°C, without daylight) Accuracy [%]” value is recorded as 100.4%; the “Short-time stability (24h, RT, with daylight) Accuracy [%]” value came to 102.7%; the “Short-time stability (24h, RT, without daylight) Accuracy [%]” value was determined as 97.9%.
Take `C[C@H]1Oc2cc(cnc2N)-c2c(nn(C)c2C#N)CN(C)C(=O)c2ccc(F)cc21` [Lorlatinib]: the “Short-time stability (1h, 56°C) Accuracy [%]” value turned out to be 60.0% (validation standard 2xLLOV), 54.3% (validation standard LLOV), 57.8% (validation standard MOV) and 50.7% (validation standard ULOV). Further, the “Short-time stability (24h, 4°C, without daylight) Accuracy [%]” value was determined as 99.8% (validation standard 2xLLOV), 98.8% (validation standard LLOV), 101.8% (validation standard MOV) and 97.0% (validation standard ULOV). Moreover, the “Short-time stability (24h, RT, with daylight) Accuracy [%]” value is 98.9% (validation standard 2xLLOV), 96.4% (validation standard LLOV), 100.2% (validation standard MOV) and 100.4% (validation standard ULOV). For the same compound, the “Short-time stability (24h, RT, without daylight) Accuracy [%]” value reads like this: (validation standard 2xLLOV) 99.6%; (validation standard LLOV) 97.8%; (validation standard MOV) 99.2%; (validation standard ULOV) 99.9%.
